Measurements published in US6683107B2, “Furans, benzofurans, and thiophenes useful in the treatment of insulin resistance and hyperglycemia” (Wyeth, priority 1998, dated 2004).

Key:
[1] = molecular target: T1, human recombinant PTP1B (hPTP1B) (Homo sapiens, UniProt P18031); experiment: Inhibition of tri-phosphorylated insulin receptor dodecaphosphopeptide dephosphorylation by hPTP1B (malachite green phosphate detection); format: biochemical; details: for IC50: recombinant PTP1B, insulin receptor 1142-1153 triphosphopeptide substrate, 37° C., 30 min, pH 7.4; for inhibition at 1 µM: compound at 1.0 μM, percent of phosphatase control
T1 construct: made in house
T1 sequence (P18031 1-435): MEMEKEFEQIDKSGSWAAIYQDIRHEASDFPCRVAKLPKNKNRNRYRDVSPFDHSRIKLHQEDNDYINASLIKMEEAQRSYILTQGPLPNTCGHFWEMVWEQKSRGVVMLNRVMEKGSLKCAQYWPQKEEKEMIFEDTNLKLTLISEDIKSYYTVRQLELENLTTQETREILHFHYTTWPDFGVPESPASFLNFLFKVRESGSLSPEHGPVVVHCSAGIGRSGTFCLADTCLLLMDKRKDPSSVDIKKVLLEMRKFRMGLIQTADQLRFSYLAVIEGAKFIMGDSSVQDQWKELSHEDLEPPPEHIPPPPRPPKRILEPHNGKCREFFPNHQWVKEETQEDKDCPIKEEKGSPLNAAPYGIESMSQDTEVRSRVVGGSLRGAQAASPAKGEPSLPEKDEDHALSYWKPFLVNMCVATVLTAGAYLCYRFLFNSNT

Structure (SMILES) | IC50 [1] [nM] | melting point [°C] | inhibition at 1 µM [1] [%]
Cc1oc(Cc2ccccc2Br)c(C(=O)c2ccc(OS(=O)(=O)c3ccc(C(=O)O)c(O)c3)c(C3CCCC3)c2)c1C [Example 21, 4-{4-[2-(2-Bromo-benzyl)4,5-dimethyl-furan-3-carbonyl]-2-cyclopentyl-phenoxysulfonyl}-2-hydroxy-benzoic acid] | 371 | 72 to 82 | –
CC(=O)Oc1cc(S(=O)(=O)Oc2ccc(C(=O)c3c(Cc4ccccc4)oc(C)c3C)cc2C2CCCC2)ccc1C(=O)O [Example 22, 2-Acetoxy4-[4-(2-benzyl-4,5-dimethyl-furan-3-carbonyl)-2-cyclopentyl-phenoxysulfonyl]-benzoic acid] | 508 | 55 to 90 | –
CC(=O)Oc1cc(S(=O)(=O)Oc2ccc(C(=O)c3c(Cc4ccccc4)sc(C)c3C)cc2C2CCCC2)ccc1C(=O)O [Example 23, 2-Acetoxy4-[4-(2-benzyl-4,5-dimethyl-thiophene-3-carbonyl)-2-cyclopentyl-phenoxysulfonyl]-benzoic acid] | 439 | 94 to 96 | –
CC(=O)Oc1cc(S(=O)(=O)Oc2ccc(C(=O)c3c(Cc4ccc(Br)cc4)sc(C)c3C)cc2C2CCCC2)ccc1C(=O)O [Example 24, 2-Acetoxy-4-{4-[2-(4-Bromo-benzyl)-4,5-dimethyl-thiophene-3-carbonyl]-2-cyclopentyl-phenoxysulfonyl}-benzoic acid] | 254 | 113 to 114 | –
CC(=O)Oc1cc(S(=O)(=O)Oc2ccc(C(=O)c3c(Cc4ccccc4Br)oc(C)c3C)cc2C2CCCC2)ccc1C(=O)O [Example 25, 2-Acetoxy-4-{4-[2-(2-Bromo-benzyl)-4,5-dimethyl-fuiran-3-carbonyl]-2-cyclopentyl-phenoxysulfonyl}-benzoic acid] | 241 | 79 | –
CCCCc1oc2ccccc2c1CCc1ccc(OS(=O)(=O)c2ccc(C(=O)O)c(OC(C)=O)c2)cc1 [Example 26, 2-Acetoxy-4-{4-[2-(2-butyl-benzofuran-3-yl)-ethyl]-phenoxysulfonyl}-benzoic acid] | – | 54 to 57 | 51.4
Cc1sc(Cc2ccc(Br)cc2)c(C(=O)c2ccc(OS(=O)(=O)c3cnn(C)c3)c(C3CCCC3)c2)c1C [Example 27, 1-Methyl-1H-pyrazole-4-sulfonic acid 4-[2-(4-bromo-benzyl)-4,5-dimethyl-thiophene-3-carbonyl]-2-cyclopentyl-phenyl ester] | – | 55 to 60 | 22.7
CCCCc1oc2ccccc2c1Cc1ccc(OS(=O)(=O)c2ccc(C(=O)O)c(O)c2)cc1 [Example 28, 4-[4-(2-Butyl-benzofuran-3-ylmethyl)-phenoxysulfonyl]-2-hydroxy-benzoic acid] | 577 | 135 to 138 | –
